Assays:
Format in all cases: in vivo
[1] = test system: pigweed (Amaranthus retroflexus); assay: Test A preemergence; settings: Amaranthus retroflexus, pre-emergence, 240 h, 0 to 100 scale where 0 is no effect and 100 is complete control, read-out: Pigweed plant response rating
[2] = test system: barnyardgrass (Echinochloa crus-galli); assay: Test A preemergence; settings: Echinochloa crus-galli, pre-emergence, 240 h, 0 to 100 scale where 0 is no effect and 100 is complete control, read-out: Barnyardgrass plant response rating
In short: (§1)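 Treatment is preemergence as a directed soil spray after planting, or postemergence at the one- to two-leaf stage, with test chemical in a non-phytotoxic solvent mixture plus surfactant. Plants stay in the greenhouse about 10 d before visual injury scoring on a 0 to 100 scale versus untreated controls.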

[3] = test system: ryegrass, Italian (Italian ryegrass, Lolium multiflorum); assay: Test A preemergence; settings: Lolium multiflorum, pre-emergence, 240 h, 0 to 100 scale where 0 is no effect and 100 is complete control, read-out: Ryegrass, Italian plant response rating
In short: as §1

[4] = test system: ragweed (common ragweed, Ambrosia elatior); assay: Test A preemergence; settings: Ambrosia artemisiifolia, pre-emergence, 240 h, 0 to 100 scale where 0 is no effect and 100 is complete control, read-out: Ragweed plant response rating
In short: as §1

[5] = test system: giant foxtail (Setaria faberii); assay: Test A preemergence; settings: Setaria faberi, pre-emergence, 240 h, 0 to 100 scale where 0 is no effect and 100 is complete control, read-out: Foxtail, Giant plant response rating
In short: as §1

Kochia (Kochia scoparia) [6] = assay: Test A preemergence; settings: Bassia scoparia, pre-emergence, 240 h, 0 to 100 scale where 0 is no effect and 100 is complete control, read-out: Kochia plant response rating
In short: as §1

[7] = test system: sedge, umbrella (small-flower umbrella sedge, Cyperus difformis); assay: Test B flooded paddy test; settings: Cyperus difformis, 250 g ai/ha, Flood; 0 to 100 scale where 0 is no effect and 100 is complete control; read-out: Sedge, Umbrella plant response rating
In short: (§2)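 Response scored visually against untreated controls, 0 = no effect and 100 = complete control, 13–15 d after treatment in the greenhouse. Compounds added to paddy water held 3 cm above soil surface. Treatment given at 2-leaf stage.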

[8] = test system: barnyardgrass (Echinochloa crus-galli); assay: Test B flooded paddy test; settings: Echinochloa crus-galli, 250 g ai/ha, Flood; 0 to 100 scale where 0 is no effect and 100 is complete control; read-out: Barnyardgrass plant response rating
In short: as §2

[9] = test system: ducksalad (Heteranthera limosa); assay: Test B flooded paddy test; settings: Heteranthera limosa, 250 g ai/ha, Flood; 0 to 100 scale where 0 is no effect and 100 is complete control; read-out: Ducksalad plant response rating
In short: as §2

rice (Oryra sativa) = assay: Test B flooded paddy test; settings: Oryza sativa, 250 g ai/ha, Flood; 0 to 100 scale where 0 is no effect and 100 is complete control; read-out: Rice plant response rating
In short: as §2

[10] = test system: pigweed (Amaranthus retroflexus); assay: Test A postemergence; settings: Amaranthus retroflexus, post-emergence, 240 h, read-out: Pigweed plant response rating (0 to 100 scale)
In short: as §1

[11] = test system: barnyardgrass (Echinochloa crus-galli); assay: Test A postemergence; settings: Echinochloa crus-galli, post-emergence, 240 h, read-out: Barnyardgrass plant response rating (0 to 100 scale)
In short: as §1

[12] = test system: blackgrass (Alopecurus myosuroides); assay: Test A postemergence; settings: Alopecurus myosuroides, post-emergence, 240 h, read-out: Blackgrass plant response rating (0 to 100 scale)
In short: as §1

[13] = test system: ryegrass, Italian (Italian ryegrass, Lolium multiflorum); assay: Test A postemergence; settings: Lolium multiflorum, post-emergence, 240 h, read-out: Ryegrass, Italian plant response rating (0 to 100 scale)
In short: as §1

[14] = test system: wheat (Triticum aestivum); assay: Test A postemergence; settings: Triticum aestivum, post-emergence, 240 h, Postemergence, 31 g ai/ha; 0 is no effect, 100 is complete control; read-out: Wheat plant response rating (0 to 100 scale)
In short: as §1

[15] = test system: ragweed (common ragweed, Ambrosia elatior); assay: Test A postemergence; settings: Ambrosia artemisiifolia, post-emergence, 240 h, read-out: Ragweed plant response rating (0 to 100 scale)
In short: as §1

corn (Zea mays) = assay: Test A postemergence; settings: Zea mays, post-emergence, 240 h, read-out: Corn plant response rating (0 to 100 scale)
In short: as §1

[16] = test system: Galium (catchweed bedstraw, Galium aparine); assay: Test A postemergence; settings: Galium, post-emergence, 240 h, read-out: Galium plant response rating (0 to 100 scale)
In short: as §1

[17] = test system: giant foxtail (Setaria faberii); assay: Test A postemergence; settings: Setaria faberi, post-emergence, 240 h, read-out: Foxtail, Giant plant response rating (0 to 100 scale)
In short: as §1

Kochia (Kochia scoparia) [18] = assay: Test A postemergence; settings: Bassia scoparia, post-emergence, 240 h, read-out: Kochia plant response rating (0 to 100 scale)
In short: as §1

[19] = 125 g ai/ha, preemergence, visual injury rating, approximately 10 d
[20] = 125 g ai/ha, postemergence, visual injury vs untreated controls after approx. 10 d, 0 = no effect, 100 = complete control
[21] = Postemergence, 31 g ai/ha, 0 is no effect, 100 is complete control

CN1C[C@H](c2ccc(Cl)c(F)c2)[C@@H](C(=O)Nc2cccc(F)c2F)C1=O [Compound 1265]
pest or weed control at 31 g/ha ([1]; 31 g ai/ha, Preemergence): 0%
pest or weed control at 125 g/ha [1, 19]: 80%
pest or weed control at 31 g/ha ([2]; 31 g ai/ha, Preemergence): 80%
pest or weed control at 125 g/ha [2, 19]: 90%
pest or weed control at 31 g/ha ([3]; 31 g ai/ha, Preemergence): 50%
pest or weed control at 125 g/ha [3, 19]: 60%
pest or weed control at 31 g/ha ([4]; 31 g ai/ha, Preemergence): 0%
pest or weed control at 125 g/ha [4, 19]: 0%
pest or weed control at 31 g/ha ([5]; 31 g ai/ha, Preemergence): 90%
pest or weed control at 125 g/ha [5, 19]: 90%
pest or weed control at 31 g/ha (Kochia (Kochia scoparia) [6]; 31 g ai/ha, Preemergence): 30%
pest or weed control at 125 g/ha (Kochia (Kochia scoparia) [6]; [19]): 70%
pest or weed control at 250 g/ha [7]: 0%
pest or weed control at 250 g/ha [8]: 60%
pest or weed control at 250 g/ha [9]: 90%
pest or weed control at 250 g/ha (rice (Oryra sativa)): 45%
pest or weed control at 125 g/ha [10, 20]: 70%
pest or weed control at 31 g/ha [10, 21]: 30%
pest or weed control at 125 g/ha [11, 20]: 90%
pest or weed control at 31 g/ha [11, 21]: 80%
pest or weed control at 125 g/ha [12, 20]: 50%
pest or weed control at 31 g/ha [12, 21]: 0%
pest or weed control at 125 g/ha [13, 20]: 30%
pest or weed control at 31 g/ha [13, 21]: 0%
plant injury at 31 g/ha [14]: 0%
pest or weed control at 125 g/ha [15, 20]: 30%
pest or weed control at 31 g/ha [15, 21]: 0%
plant injury at 125 g/ha (corn (Zea mays); [20]): 70%
plant injury at 31 g/ha (corn (Zea mays); [21]): 30%
pest or weed control at 125 g/ha [16, 20]: 60%
pest or weed control at 31 g/ha [16, 21]: 60%
pest or weed control at 125 g/ha [17, 20]: 80%
pest or weed control at 31 g/ha [17, 21]: 80%
pest or weed control at 125 g/ha (Kochia (Kochia scoparia) [18]; [20]): 70%
pest or weed control at 31 g/ha (Kochia (Kochia scoparia) [18]; [21]): 50%
